Measurements from patent publication US20260294905A1, “USE OF PLURALITY OF COMPOUNDS IN PREPARATION OF DRUG FOR TREATING MYELOPROLIFERATIVE NEOPLASMS” (THE SECOND XIANGYA HOSPITAL OF CENTRAL SOUTH UNIVERSITY, priority 2022, published 2026).
Several values for one entry are separate records, joined by “and”; a condition that tells them apart may be missing. Identical values can stand only once. Entries after “also recorded” stand apart in the source; their conditions may differ.

Assays:
[1] = system: HEL^RE cells (Ruxolitinib-resistant HEL); assay: Annexin V-PI staining and flow cytometry, apoptosis of HEL^RE cells; type: cell-based, human; details: for average apoptosis rate of HEL-RE cells: 24 h; for promotion of apoptosis of HEL^RE cells (in words): 0.1-10 μM
Description: (§1) To detect the apoptosis-promoting effect of the inhibitors, HEL naïve cell strains were treated with Ruxolitinib and the compounds for 24 hours respectively (with concentrations of: 0, 0.1, 0.5, 1 μM or 0, 0.1, 0.3, 1, 3, 10 μM), and added with DMSO to make up to the same amount. 3 parallel replicate groups were set up, and cell apoptosis was detected by Annexin V and PI staining followed by flow cytometry.
(§2) A calculation formula of cell apoptosis rate was: cell apoptosis rate=the ratio of early apoptotic cells (Annexin V^+/PI^−)+the ratio of late apoptotic cells and necrotic cells (Annexin V^+/PI^+).
In order to detect the effects of compounds on the abilities of drug-resistant myeloproliferative neoplasm cells, the method was to treat HEL^RE with increasing concentrations of Ruxolitinib and the compounds, and to detect cell apoptosis by Annexin V and PI staining followed by flow cytometry.

[2] = system: HEL^RE cells (Ruxolitinib-resistant HEL); assay: CellTiter-Lumi luminescence proliferation of Ruxolitinib-resistant HEL^RE cells, 48 h; type: cell-based, human; details: HEL^RE cells; for inhibition of proliferation of HEL^RE cells (in words): 0.1-10 μM; for activity at 0.1 µM / activity at 0.3 µM / activity at 1 µM / activity at 3 µM / activity at 10 µM: Homo sapiens, 48 h, vs DMSO control, read-out: average proliferation rate of HEL^RE cells
Excerpt: (§3) HELs (Human erythroleukemia cell lines) and Ruxolitinib-resistant HEL cells were both cultured in a RPMI medium (Gibco) containing 20% heat-inactivated fetal bovine serum (Gibco) and 1% penicillin/streptomycin.
A Ruxolitinib-resistant HEL model, i.e., a HEL^RE model, was constructed by starting the addition of Ruxolitinib at a concentration lower than the IC50 of naïve cells and slowly incrementing the concentration to a high concentration, and preventing the cells from being killed. Our starting concentration was 0.1 μM. The drug was added upon occurrence of cell proliferation. The drug addition gradient was an increment at a multiple of 1.25, and the final concentration was 2.0 μM. Stable drug-resistant cells were obtained after 4-6 weeks.
(§4) Ruxolitinib and other compounds were all purchased from Selleck, dissolved in DMSO with a stock solution concentration of 10 mM, and cryopreserved at −80° C. The working solution was diluted to a specified multiple using a RPMI medium and then used for treating cells. Ruxolitinib was specifically ruxolitinib phosphate.
(§5) To detect the antiproliferative effect of the inhibitor, the aforementioned cell lines were cultured at 3,000 cells/100 μL of the system per well, added with increasing concentrations of Ruxolitinib (concentration gradients of HEL cells: 0, 0.1, 1, 2.5, 5 μM; or 0, 0.1, 0.3, 1, 3, 10 μM), and added with DMSO to make up to the same amount. 4 parallel replicate groups were set up, and 3 blank wells (wells containing culture media without cells) were set up.
(§6) A calculation formula of the cell proliferation rate was: cell proliferation rate=(Luminescence value of the group added with the drug-average Luminescence value of the blank wells)/(Luminescence value of the DMSO control group-average Luminescence value of the blank wells)×100%.
A method for evaluating whether the model was successfully constructed was to compare the IC50s of resistant cells and naïve cells.
(§7) In order to detect the effects of five compounds on the proliferation abilities of drug-resistant myeloproliferative neoplasm cells, the method was to treat HEL^RE with increasing concentrations of Ruxolitinib and the five compounds respectively, and to detect the proliferation of the cells by a CellTiter-Lumi™ luminescence method.

[3] = system: HEL cells (human erythroleukemia cell line); assay: Annexin V-PI staining and flow cytometry, apoptosis of HEL cells, 24 h; type: cell-based; details: for promotion of apoptosis of HEL cells (in words): 0.1-10 μM
Description: • 1. the cell lines and inhibitors were the same as those in Example 1. • 2. detection of cell apoptosis
as §1, §2

[4] = orally once a week, RP2D 420 mg/m^2 (not exceeding 600 mg); cited from earlier work
[5] = system: preclinical model including melanoma; details: cited from earlier work
[6] = system: HEL cells (human erythroleukemia cell line); assay: CellTiter-Lumi luminescence proliferation of naive HEL cells, 48 h; type: cell-based; details: for inhibition of proliferation of HEL cells (in words): 0.1-10 μM; for activity at 0.1 µM / activity at 0.3 µM / activity at 1 µM / activity at 3 µM / activity at 10 µM: Homo sapiens, 48 h, vs DMSO control, read-out: average proliferation rate of HEL cells
Description: as §3, §4, §5, §6
as §7, with “the” for “five”, “the HEL naïve cell lines” for “HEL^RE”, “the” for “the five”

[7] = system: progressive or metastatic solid tumors; details: RP2D 2.7 mg, cited from earlier work
[8] = system: neuroblastoma mouse model; details: cited from earlier work
[9] = system: non-small cell lung cancer; details: non-small cell lung cancer patients, RP2D 275 mg per day; cited from earlier work
neuroblastoma cells = details: cited from earlier work

| SMILES | average apoptosis rate of HEL-RE cells ([1]; 0.1 μM) | average apoptosis rate of HEL-RE cells ([1]; 0.3 μM) | average apoptosis rate of HEL-RE cells ([1]; 1 μM) | average apoptosis rate of HEL-RE cells ([1]; 3 μM) | average apoptosis rate of HEL-RE cells ([1]; 10 μM) | promotion of apoptosis of HEL^RE cells (in words) [1] | inhibition of proliferation of HEL^RE cells (in words) [2] | activity at 0.1 µM [2] [%] | activity at 0.3 µM [2] [%] | activity at 1 µM [2] [%] | activity at 3 µM [2] [%] | activity at 10 µM [2] [%] | average apoptosis rate of HEL cells ([3]; 0.1 μM) | average apoptosis rate of HEL cells ([3]; 0.3 μM) | average apoptosis rate of HEL cells ([3]; 1 μM) | average apoptosis rate of HEL cells ([3]; 3 μM) | average apoptosis rate of HEL cells ([3]; 10 μM) | promotion of apoptosis of HEL cells (in words) [3] | inhibition of proliferation of HEL cells (in words) [6] | activity at 0.1 µM [6] [%] | also measured |
| --- | --- | --- | --- | --- | --- | --- | --- | --- | --- | --- | --- | --- | --- | --- | --- | --- | --- | --- | --- | --- | --- |
| C[C@@H](NC(=O)c1ncnc(N)c1Cl)c1ncc(C(=O)Nc2cc(C(F)(F)F)c(Cl)cn2)s1 [MLN2480] | 6.54±0.560% and 6.54% | 7.80±0.900% and 7.80% | 10.9±0.390% and 10.9% | 15.5±0.580% and 15.5% | 13.8±0.775% and 13.8% | could promote apoptosis of Ruxolitinib-resistant myeloproliferative neoplasm cells, and this effect was increased with the increase of the drug concentration; also recorded: can promote the apoptosis of the HEL^RE cells | could inhibit the proliferation of drug-resistant myeloproliferative neoplasm cells, and this effect was increased with the increase of the drug concentration | 103 ± 8.58 | 75.1 ± 3.54 | 46.5 ± 9.45 | 18.9 ± 4.22 | 10.3 ± 0.49 | 4.61±2.768% and 4.61% | 3.85±0.101% and 3.85% | 5.53±1.22% and 5.53% | 10.04±2.663% and 10.04% | 8.8±1.063% and 8.8% | could not promote the apoptosis of myeloproliferative neoplasm cells | could not inhibit the proliferation of the HEL cells | 98.5 ± 2.62 | overall effectiveness among the compounds ([2]; proliferation and apoptosis taken together): more effective; safety [4]: good safety and low toxic and side effects; anti-tumor activity [5]: good anti-tumor activity; activity at 0.3 µM [6]: 97.9 ± 3.55%; activity at 1 µM [6]: 97.3 ± 0.78%; activity at 3 µM [6]: 98.3 ± 0.65%; activity at 10 µM [6]: 97.6 ± 3.47% |
| CNS(=O)(=O)Nc1nccc(Cc2c(C)c3ccc(Oc4ncccn4)cc3oc2=O)c1F [RO5126766] | 6.25±0.920% and 6.25% | 5.88±1.25% and 5.88% | 7.32±1.74% and 7.32% | 4.71±0.350% and 4.71% | 5.42±0.830% and 5.42% | could not promote apoptosis of the HEL^RE cells | could inhibit the proliferation of the HEL^RE cells, and this effect increased with increase in the drug concentration | 48.1 ± 3.37 | 41.4 ± 3.16 | 35.2 ± 2.89 | 31.5 ± 1.9 | 27.7 ± 2.34 | 6.00±0.290% and 6.00% | 6.96±1.16% and 6.96% | 6.11±0.640% and 6.11% | 8.32±2.69% and 8.32% | 6.73±1.20% and 6.73% | could not promote apoptosis of the HEL cells | can successfully inhibit the proliferation of the HEL cells; also recorded: could inhibit the proliferation of the HEL cells, and this effect increased with increase in the drug concentration | 85.8 ± 2.75 | anti-tumor activity ([7]; 4 consecutive days a week for 4 weeks): good anti-tumor activity; side effects [7]: tolerable side effects; activity at 0.3 µM [6]: 89 ± 13.5%; activity at 1 µM [6]: 83.4 ± 3.31%; activity at 3 µM [6]: 61.6 ± 3.79%; activity at 10 µM [6]: 47.1 ± 5.47% |
| COc1cc2ncnc(Oc3cccc(NC(=O)Nc4cc(C(C)(C)C(F)(F)F)on4)c3)c2cc1OC [Agerafenib] | 7.05±0.920% and 7.05% | 5.33±0.430% and 5.33% | 5.11±0.210% and 5.11% | 7.37±0.220% and 7.37% | 8.22±0.390% and 8.22% | could not promote apoptosis of the HEL^RE cells | could inhibit the proliferation of the HEL^RE cells, and this effect was increased with the increase of the drug concentration | 4.26 ± 0.46 | 2.77 ± 0.43 | 2.75 ± 0.94 | 2.21 ± 0.04 | 1.86 ± 0.23 | 4.41±0.630% and 4.41% | 4.98±1.09% and 4.98% | 3.42±0.140% and 3.42% | 5.27% | 5.43±0.720% and 5.43% | could not promote apoptosis of the HEL cells | can successfully inhibit the proliferation of the HEL cells; also recorded: could inhibit the proliferation of the HEL cells, and this effect was increased with the increase of the drug concentration | 90.1 ± 3.01 | tumor growth and survival [8]: able to inhibit tumor growth of and prolong the survival of mice significantly; activity at 0.3 µM [6]: 93.8 ± 12.4%; activity at 1 µM [6]: 83.2 ± 4.45%; activity at 3 µM [6]: 70.3 ± 3.47%; activity at 10 µM [6]: 40.1 ± 8.26%; anti-tumor activity [9]: good anti-tumor activity; proliferation and colony formation of neuroblastoma cells (neuroblastoma cells; in vitro): able to inhibit the proliferation and colony formation of neuroblastoma cells in vitro; combination with traditional chemotherapy drugs (neuroblastoma cells; with traditional chemotherapy drugs): had a synergistic effect with traditional chemotherapy drugs |
